In patent publication US20020065227A1, “Charged compounds comprising a nucleic acid binding moiety and uses therefor” (priority 2000, published 2002):
Values after ≈ are worked out from the molar mass of the structure shown. Values joined by “and” are separate entries in the source; they are usually repeats but may differ in a detail not shown here. Equal entries are not always repeated. Where two headings read alike, the source gives them in different places.

Tests used:
[1] = tested on: Staphylococcus aureus (33591) (methicillin resistant); assay: MIC, NCCLS broth microdilution; format: cell-based; details: Staphylococcus aureus (33591), methicillin resistant (MRSA)
Micrococcus luteus (381) = assay: MIC, NCCLS broth microdilution; format: cell-based
Esherichia coli (25922) = assay: MIC, NCCLS broth microdilution; format: cell-based, Escherichia coli; details: Escherichia coli (25922)
[2] = tested on: Enterococcus faecium (51559) (vacomycin resistant); assay: MIC, NCCLS broth microdilution; format: cell-based; details: Enterococcus faecium (51559), vancomycin resistant
[3] = tested on: Enterococcus faecalis (29212); assay: MIC, NCCLS broth microdilution; format: cell-based; details: Enterococcus faecalis (29212)
[4] = tested on: Peptostreptococcus asaccharolytics (29743); assay: MIC, NCCLS broth microdilution; format: cell-based; details: anaerobe
[5] = tested on: Streptococcus pneumoniae (49619); assay: MIC, NCCLS broth microdilution; format: cell-based; details: Streptococcus pneumoniae (49619)
[6] = tested on: Listeria monocytogenes (19115); assay: MIC, NCCLS broth microdilution; format: cell-based; details: read-out: MIC
[7] = tested on: Corynebacterium Group A (49676); assay: MIC, NCCLS broth microdilution; format: cell-based
[8] = tested on: Haemophilus influenzae (49247); assay: MIC, NCCLS broth microdilution; format: cell-based; details: Haemophilus influenzae (49247); read-out: MIC
[9] = tested on: Staphylococcus epidermidis (12228); assay: MIC, NCCLS broth microdilution; format: cell-based; details: Staphylococcus epidermidis (12228)
[10] = tested on: Streptococcus pyogenes (49339); assay: MIC, NCCLS broth microdilution; format: cell-based; details: Streptococcus pyogenes (49339), Table Ia: Streptococcus Group A(49339)
Bacillus cereus (11778) = assay: MIC, NCCLS broth microdilution; format: cell-based
[11] = tested on: Pseudomona aeruginosa (27853); assay: MIC, NCCLS broth microdilution; format: cell-based
[12] = tested on: Propionibacterium acnes (33179); assay: MIC, NCCLS broth microdilution; format: cell-based; details: anaerobe
[13] = tested on: Staphylococcus aureus (29213); assay: MIC, NCCLS broth microdilution; format: cell-based
[14] = tested on: Clostridium perfringens (13124); assay: microbe, parasite or virus in culture; format: cell-based
Bacillus subtilis (6633) = assay: MIC, NCCLS broth microdilution; format: cell-based
[15] = tested on: Streptococcus pneumoniae (51422) (multiple drug resistant); assay: MIC, NCCLS broth microdilution; format: cell-based
AGTACT = assay: DNase I footprint titration, AGTACT site; format: binding; details: equilibrium association constant Ka; pH 7.0, 22° C.
ACTACT = assay: DNase I footprint titration, ACTACT site; format: binding; details: equilibrium association constant Ka; pH 7.0, 22° C.
Candida albicans (90028) = assay: MIC, antifungal assay; format: cell-based
AATACT = assay: DNase I footprint titration, AATACT site; format: binding; details: equilibrium association constant Ka; pH 7.0, 22° C.
ATTACT = assay: DNase I footprint titration, ATTACT site; format: binding; details: equilibrium association constant Ka; pH 7.0, 22° C.
[16] = tested on: Candida albicans (38247) (Polyene resistant); assay: MIC, antifungal assay; format: cell-based

CC1COc2c(N3CCN(C)CC3)c(F)cc3c(=O)c(C(=O)O)cn1c23 (stereo not drawn) [Ofloxacin, ofloxacin, reference compound] gave an MIC ([1]; read-out: MIC) of 0.25 µg/mL (≈ 0.692 µM), an MIC (Micrococcus luteus (381); read-out: MIC) of 1 µg/mL (≈ 2.77 µM) and an MIC (Esherichia coli (25922); read-out: MIC) of 0.03 µg/mL (≈ 0.083 µM). The MIC ([2]; read-out: MIC) was 8 µg/mL (≈ 22.1 µM), the MIC ([3]; read-out: MIC) was 8 µg/mL (≈ 22.1 µM) and the MIC ([4]; read-out: MIC) was 0.5 µg/mL (≈ 1.38 µM). The MIC ([5]; read-out: MIC) was 1 to 2 µg/mL (≈ 2.77 to 5.53 µM), the MIC [6] was 1 µg/mL (≈ 2.77 µM) and the MIC ([7]; Corynebacterium) was 0.125 µg/mL (≈ 0.346 µM). For the same compound, the MIC [8] was 0.25 µg/mL (≈ 0.692 µM), the MIC ([9]; read-out: MIC) was 0.25 µg/mL (≈ 0.692 µM) and the MIC ([10]; read-out: MIC) was 1 µg/mL (≈ 2.77 µM). For the same compound, the MIC (Bacillus cereus (11778); Bacillus cereus) was 0.125 µg/mL (≈ 0.346 µM), the MIC [11] was over 128 µg/mL and the MIC ([12]; Cutibacterium acnes, read-out: MIC) was 0.25 µg/mL (≈ 0.692 µM). For the same compound, the MIC ([13]; Staphylococcus aureus) was 0.125 µg/mL (≈ 0.346 µM), the MIC ([14]; Clostridium perfringens) was 0.25 µg/mL (≈ 0.692 µM) and the MIC (Bacillus subtilis (6633); Bacillus subtilis) was 0.125 µg/mL (≈ 0.346 µM).
In the case of Cn1cc(NC(=O)c2cc(NC(=O)c3nsc(NCCN4CCOCC4)c3Cl)cn2C)cc1C(N)=O [V-bb], the MIC (Bacillus cereus (11778); Bacillus cereus, strain not stated) is reported as 8 µg/mL (≈ 15 µM).
CN(C)CCCNC(=O)c1cc(NC(=O)c2cc(NC(=O)c3cc(NC(=O)c4nsc(NCCN)c4Cl)cn3C)cn2C)cn1C [V-c] showed an MIC [1] of 16 µg/mL (≈ 23.8 µM), an MIC (Micrococcus luteus (381)) of 8 µg/mL (≈ 11.9 µM) and an MIC (Esherichia coli (25922)) of over 128 µg/mL. For the same compound, the MIC [2] was 8 µg/mL (≈ 11.9 µM), the MIC [15] was 4 µg/mL (≈ 5.95 µM) and the MIC [3] was 4 µg/mL (≈ 5.95 µM). The “Binding Constant, sequence AGTACT” value (AGTACT) was 5e+09 M⁻¹, the MIC [4] was 0.5 µg/mL (≈ 0.744 µM) and the “Binding Constant, sequence ACTACT” value (ACTACT) was 2e+08 M⁻¹. The MIC (Candida albicans (90028)) was 8 µg/mL (≈ 11.9 µM), the MIC [5] was 2 µg/mL (≈ 2.98 µM) and the MIC ([7]; Corynebacterium Group A (49676)) was 1 µg/mL (≈ 1.49 µM). The MIC [9] was 8 µg/mL (≈ 11.9 µM), the “Binding Constant, sequence AATACT” value (AATACT) was 2e+08 M⁻¹ and the MIC [10] was 2 µg/mL (≈ 2.98 µM). For the same compound, the “Binding Constant, sequence ATTACT” value (ATTACT) was 2e+08 M⁻¹, the MIC (Bacillus cereus (11778); Bacillus cereus (11778)) was 4 µg/mL (≈ 5.95 µM) and the MIC ([11]; Pseudomona aeruginosa (27853)) was over 128 µg/mL. The MIC [12] was 8 µg/mL (≈ 11.9 µM), the MIC ([13]; Staphylococcus aureus (29213)) was 8 µg/mL (≈ 11.9 µM) and the MIC ([14]; Clostridium perfringens (13124), anaerobe) was 2 µg/mL (≈ 2.98 µM). It also gave an MIC (Bacillus subtilis (6633); Bacillus subtilis (6633)) of 4 µg/mL (≈ 5.95 µM).
For Cn1cc(NC(=O)c2cc(NC(=O)c3cc(NC(=O)c4nsc(Cl)c4Cl)cn3C)cn2C)cc1C(=O)NCCC(=N)N [V-ee], the MIC (Esherichia coli (25922)) was 64, μg/mL and 32 μg/mL, the MIC (Bacillus cereus (11778); Bacillus cereus (11778)) was 0.25 µg/mL (≈ 0.395 µM) and the MIC [16] was 2 µg/mL (≈ 3.16 µM). The MIC ([13]; Staphylococcus aureus (29213)) was 0.25, μg/mL and 0.125 μg/mL.
For Cn1cc(NC(=O)c2cc(NC(=O)c3cc(NC(=O)c4nsc(NCCCNC5CCCCC5)c4Cl)cn3C)cn2C)cc1C(=O)NCCCNC1CCCCC1 [V-ff], the MIC (Esherichia coli (25922)) was 32 µg/mL (≈ 38.9 µM), the MIC (Bacillus cereus (11778); Bacillus cereus (11778)) was 2 µg/mL (≈ 2.43 µM) and the MIC [16] was 16 µg/mL (≈ 19.5 µM). The MIC ([13]; Staphylococcus aureus (29213)) was 1 µg/mL (≈ 1.22 µM).
Cn1cc(NC(=O)c2cc(NC(=O)c3cc(NC(=O)c4nsc(NCCN5CCOCC5)c4Cl)cn3C)cn2C)cc1C(=O)NCCN1CCOCC1 [V-gg] was tested, and the MIC (Esherichia coli (25922)) was 32 µg/mL (≈ 41.5 µM), the MIC [16] was 32 µg/mL (≈ 41.5 µM) and the MIC ([13]; Staphylococcus aureus (29213)) was 2, μg/mL and 1 μg/mL.
Cn1cc(NC(=O)c2cc(NC(=O)c3cc(NC(=O)c4nsc(N5CCCCC5)c4Cl)cn3C)cn2C)cc1C(=O)NCCN1CCOCC1 [V-hh] showed an MIC (Esherichia coli (25922)) of 32 µg/mL (≈ 44.1 µM), an MIC (Bacillus cereus (11778); Bacillus cereus (11778)) of 1 µg/mL (≈ 1.38 µM) and an MIC [16] of 32 µg/mL (≈ 44.1 µM). For the same compound, the MIC ([13]; Staphylococcus aureus (29213)) was 1 µg/mL (≈ 1.38 µM).
COc1snc(C(=O)Nc2cc(C(=O)Nc3cc(C(=O)Nc4cc(C(=O)NCCC(=N)N)n(C)c4)n(C)c3)n(C)c2)c1Cl [V-jj] was tested, and the MIC (Esherichia coli (25922)) was 32 µg/mL (≈ 50.9 µM), the MIC (Bacillus cereus (11778); Bacillus cereus (11778)) was 0.25 µg/mL (≈ 0.397 µM) and the MIC [16] was 1 µg/mL (≈ 1.59 µM). The MIC ([13]; Staphylococcus aureus (29213)) was 0.5 µg/mL (≈ 0.795 µM).
Cn1cc(NC(=O)c2cc(NC(=O)c3cc(NC(=O)c4nsc(Cl)c4Cl)cn3C)cn2C)cc1C(=O)NCCN1CCOCC1 [V-mm] gave an MIC (Esherichia coli (25922)) of 32 µg/mL (≈ 47.3 µM), an MIC (Bacillus cereus (11778); Bacillus cereus (11778)) of 0.25 µg/mL (≈ 0.37 µM) and an MIC [16] of 32 µg/mL (≈ 47.3 µM). It also gave an MIC ([13]; Staphylococcus aureus (29213)) of 0.5 µg/mL (≈ 0.739 µM).
Work on CN=C(CCNC(=O)c1cc(NC(=O)c2cc(NC(=O)c3cc(NC(=O)c4nsc(Cl)c4Cl)cn3C)cn2C)cn1C)NC [V-nn] yielded an MIC (Esherichia coli (25922)) of 32 µg/mL (≈ 48.4 µM), an MIC (Bacillus cereus (11778); Bacillus cereus (11778)) of 0.064 µg/mL (≈ 0.0967 µM) and an MIC [16] of 1 µg/mL (≈ 1.51 µM). It also gave an MIC ([13]; Staphylococcus aureus (29213)) of 0.031 µg/mL (≈ 0.0469 µM).
COc1snc(C(=O)Nc2cc(C(=O)Nc3cc(C(=O)Nc4cc(C(=O)NCCNC(=N)N)n(C)c4)n(C)c3)n(C)c2)c1Cl [V-oo] gave an MIC (Esherichia coli (25922)) of 32 µg/mL (≈ 49.7 µM), an MIC (Bacillus cereus (11778); Bacillus cereus (11778)) of 0.5 µg/mL (≈ 0.776 µM) and an MIC [16] of 1 µg/mL (≈ 1.55 µM). For the same compound, the MIC ([13]; Staphylococcus aureus (29213)) was 0.25 µg/mL (≈ 0.388 µM).
